{
  "source": "paper PMC10095932",
  "about": "(Molecules, 2023)",
  "biological_target": "T1, rat NPR-A (Rattus norvegicus, UniProt P18910)",
  "T1 construct": "endogenous in cells; host or cells: rat PC12 cells",
  "T1 sequence (P18910 29-1057)": "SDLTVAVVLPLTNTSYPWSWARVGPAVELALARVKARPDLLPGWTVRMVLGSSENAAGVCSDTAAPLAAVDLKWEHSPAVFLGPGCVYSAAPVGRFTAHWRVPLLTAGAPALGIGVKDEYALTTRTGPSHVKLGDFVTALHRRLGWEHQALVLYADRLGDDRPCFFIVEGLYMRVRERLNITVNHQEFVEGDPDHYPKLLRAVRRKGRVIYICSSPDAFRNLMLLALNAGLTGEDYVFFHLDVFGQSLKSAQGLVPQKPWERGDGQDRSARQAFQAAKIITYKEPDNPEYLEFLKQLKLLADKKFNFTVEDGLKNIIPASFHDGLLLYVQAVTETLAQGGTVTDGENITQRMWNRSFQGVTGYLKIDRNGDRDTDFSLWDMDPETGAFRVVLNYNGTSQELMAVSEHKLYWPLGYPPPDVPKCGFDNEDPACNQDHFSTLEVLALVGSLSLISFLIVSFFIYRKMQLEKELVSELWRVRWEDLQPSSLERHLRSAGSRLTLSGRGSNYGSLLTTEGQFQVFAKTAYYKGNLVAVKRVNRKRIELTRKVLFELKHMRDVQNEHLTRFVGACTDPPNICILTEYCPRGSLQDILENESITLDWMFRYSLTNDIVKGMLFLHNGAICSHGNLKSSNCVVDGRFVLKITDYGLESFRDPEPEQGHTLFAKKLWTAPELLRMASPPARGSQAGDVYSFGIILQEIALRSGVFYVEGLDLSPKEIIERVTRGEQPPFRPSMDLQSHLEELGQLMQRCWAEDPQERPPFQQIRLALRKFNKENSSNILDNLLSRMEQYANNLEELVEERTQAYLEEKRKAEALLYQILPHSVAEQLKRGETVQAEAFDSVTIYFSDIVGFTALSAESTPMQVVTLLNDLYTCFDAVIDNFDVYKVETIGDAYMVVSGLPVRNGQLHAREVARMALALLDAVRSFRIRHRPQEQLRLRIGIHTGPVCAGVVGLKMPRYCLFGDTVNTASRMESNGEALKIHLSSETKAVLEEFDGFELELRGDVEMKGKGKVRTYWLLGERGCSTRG",
  "assay": "cGMP ALPHAscreen, cGMP production in PC12 cells",
  "format": "cell-based",
  "protocol": "NP activity can be determined by the effectiveness of the peptide to elicit cGMP production through NPR-A. The cGMP ALPHAscreen evaluates the ability of peptides to stimulate cGMP production in cells through a non-radioactive, homogenous, proximity assay which encompasses […]. […] In order to evaluate the potency of TNPa-e at rNPR-A, TNPa-e were evaluated using the cGMP ALPHAscreen in rat PC12 cells.\nCells were cultured at 5% CO2 and 37 °C. HEK 293 cells were cultured in high glucose DMEM (Gibco, Carlsbad, CA, USA) supplemented with 10% FBS, and 1% penicillin/streptomycin. HEK 293 cells were seeded in media lacking penicillin/streptomycin 24 to 48 h pre-transfection. PC12 cells were cultured in high glucose DMEM (Gibco) supplemented with 10% FBS and 1% penicillin/streptomycin.\nThe cGMP ALPHAscreen was performed using the ALPHAscreen Protein A detection kit and the biotinylated cGMP supplement (Perkin Elmer, Waltham, MA, USA) with rabbit anti-cGMP polyclonal antibody (Biovision, Mountain View, CA, USA). Cells were detached from the flask and the resulting pellet was resuspended in stimulation buffer (HBSS supplemented with 0.1% w/v BSA and 1 mM IBMX at 37 °C). Cells were added to a white 384-well Optiplate (Perkin Elmer, Waltham, USA) to 30,000 cells per well for HEK 293 cells and 10,000 cells per well for PC12 cells. Cells were incubated with different concentrations of test peptides (concentration range of 1 × 10^−5 to 1 × 10^−11 M in stimulation buffer) at 37 °C for 30 min. Cells were lysed with lysis buffer (1 M HEPES, 0.3% Tween-20, 1% BSA in H2O, pH 7.4). Then 5 μL acceptor-bead mix was added to each well under subdued lighting conditions, followed by 5 μL of donor-bead mix. Plates were incubated for ~12 h, slowly shaking at room temperature. After incubation, the ALPHAscreen signal was measured using an EnVision plate reader (Perkin Elmer). The standard curve consisted of cGMP in a concentration range of 1 × 10^−6 to 1 × 10^−12 M. All data points were acquired in triplicate and were analyzed using GraphPad Prism 5.0 software (GraphPad Software, Inc., San Diego, CA, USA).",
  "note": "Where a SMILES comes first, the peptide text is derived from it. Bridges are numbered along the chain shown (N, C = ends).",
  "data": [
    {"smiles": "CC[C@H](C)[C@H](NC(=O)[C@H](CCCCN)NC(=O)[C@H](CO)NC(=O)[C@H](CC(=O)O)NC(=O)[C@@H](N)CO)C(=O)NCC(=O)N[C@@H](CC(N)=O)C(=O)NCC(=O)N[C@H]1CSSC[C@@H](C(=O)N[C@@H](CC(N)=O)C(=O)N[C@@H](CCCNC(=N)N)C(=O)N[C@H](C(=O)N[C@@H](CCSC)C(=O)N[C@@H](CCC(N)=O)C(=O)N[C@@H](CC(N)=O)C(=O)N2CCC[C@H]2C(=O)N2CCC[C@H]2C(=O)N[C@@H](CCCCN)C(=O)N[C@@H](CCCCN)C(=O)N[C@@H](Cc2ccccc2)C(=O)N[C@@H](CO)C(=O)NCC(=O)N[C@@H](CCC(=O)O)C(=O)O)[C@@H](C)CC)NC(=O)CNC(=O)[C@H](CC(C)C)NC(=O)CNC(=O)[C@H](CO)NC(=O)[C@H](C(C)C)NC(=O)[C@H](CO)NC(=O)CNC(=O)[C@H]([C@@H](C)CC)NC(=O)[C@H](CCCNC(=N)N)NC(=O)[C@H](CC(=O)O)NC(=O)[C@H](CC(C)C)NC(=O)[C@@H]2CCCN2C(=O)[C@H](Cc2ccccc2)NC(=O)CNC(=O)[C@H](Cc2ccccc2)NC1=O", "note": "[TNPc] (H-SDSKIGNGCFGFPLDRIGSVSGLGCNRIMQNPPKKFSGE-OH; disulfide 9-25)", "values": [
      {"measurement": "EC50", "setting": "PC12 cells, 30 min at 37 °C, cGMP ALPHAscreen, three to five separate experiments in triplicate, read-out: rNPR-A EC50 (95% CI), potency to stimulate cGMP production", "value": 100, "unit": "nM"},
      {"measurement": "selectivity / difference in potency for rNPR-A over hNPR-A", "setting": "rNPR-A (PC12) versus hNPR-A (HEK 293) cGMP potency", "value": 100, "unit": "fold"}
    ]}
  ]
}
